Measurements published in patent US20120328536A1, “Taste Improving Substances” (QUEST INTERNATIONAL SERVICES B.V., priority 2006, published 2012).

Key:
[1] = Tasting of NaCl/MSG/pepper oleoresin solution by a professional panel; conditions: 50 ppm in 0.6% NaCl, 0.03% MSG, 4 ppm pepper oleoresin
Protocol: Two solutions of 0.6% NaCl and 0.03% MSG and 4 ppm pepper oleoresin (ex Warner Jenkinson, St Louis, USA) were prepared. To one sample (sample A), 50 ppm of N-(2-hydroxyethyl) 5-hydroxyhexanoyl amide (as prepared in example 1) was added. The other sample was used as the reference. Both samples were tasted by a professional panel.

[2] = Tasting of Odol mouthwater by a professional panel; conditions: 50 ppm in Odol mouthwater
Protocol: Commercially available Odol mouthwater (GlaxoSmithKline) was obtained from a local pharmacy and 4 solutions were prepared.
To a first sample (sample A), 50 ppm of N-(2-hydroxyethyl) 5-hydroxyhexanoyl amide (as prepared in example 1) was added. Samples A was tasted by a professional panel and compared with the mouthwater without added N-(2-hydroxyethyl) 5-hydroxyhexanoyl amide.

[3] = Tasting of 3% alcohol in water by a professional panel; conditions: 50 ppm in 3% alcohol in water
Protocol: Two solutions of 3% alcohol in water were prepared. To one sample (sample A), 50 ppm of N-(2-hydroxyethyl) 5-hydroxyhexanoyl amide (as prepared in example 1) was added. The other sample was used as the reference sample. Both samples were tasted by a professional panel.

[4] = Tasting of toothpaste by a professional panel; conditions: 50 ppm in commercial toothpaste
Protocol: Commercially available toothpaste was obtained from a local pharmacy and 4 samples of paste were prepared.
To a first sample (sample A), 50 ppm of N-(2-hydroxyethyl) 5-hydroxyhexanoyl amide (as prepared in example 1) was added and homogenized. Samples A was tasted by a professional panel and compared with the toothpaste without added N-(2-hydroxyethyl) 5-hydroxyhexanoyl amide.

[5] = Tasting of menthol fondant by a professional panel; conditions: 50 ppm in fondant with 2500 ppm menthol
Protocol: Two samples of fondant were prepared by mixing 65 Fondacreme (ex Belgosuc NV Belgium) with 35% sugar syrup (67° Brix). 2500 Ppm menthol was added as a 50% solution in propylene glycol. To a first sample (sample A), 50 ppm of N-(2-hydroxyethyl) 5-hydroxyhexanoyl amide (as prepared in example 1) was added. The second sample was the reference sample. The Samples were tasted by a professional panel.

In the case of “N-(2-hydroxyethyl) 5-hydroxyhexanoyl amide”, the “after-taste compared to the reference sample” value [1] is reported as “more a hot, tingling after-taste”, the “initial hotness compared to the reference sample” value [1] is reported as “initial hotness was increased” and the “cooling in the oral cavity” value [2] is reported as “more aggressive cooling in the whole oral cavity”. For the same substance, the “initial cooling and mouth-coating” value [2] was “more initial cooling and more mouth-coating”, the “overall impact compared with mouthwater without the amide” value [2] was “stronger overall impact” and the “alcohol impression compared to the reference sample” value [3] was “alcohol-boosting effect”. The “ethanol water mixture that the sample tasted like” value [3] was 5-6%, the “cooling in the oral cavity” value [4] was “more aggressive cooling in the whole oral cavity” and the “initial cooling and mouth-coating” value [4] was “more initial cooling and more mouth-coating”. The “overall impact compared with the reference sample” value [4] was “stronger overall impact”, the “cooling compared with the reference sample” value [5] was “more intense cooling than the reference sample” and the “onset and location of the cooling effect” value [5] was “its effect is immediate and through the whole oral cavity”.
